Test results taken from patent EP3925949A1, “AZIDO COMPOUNDS AND METHOD FOR MONITORING ACID CERAMIDASE ACTIVITY IN INTACT CELLS USING THEM” (Consejo Superior de Investigaciones Científicas (CSIC), priority 2020, dated 2021).

Legend:
[1] = target: T1, alkaline ceramidases 1 (ACER1) (Homo sapiens, UniProt Q8TDN7); experiment: Hydrolysis of RBM5-177 by microsomes of ACER1 overexpressing cells, UPLC-HRMS; assay type: biochemical; settings: microsomes from ACER1 overexpressing cells, RBM5-177 5 µM, 30 min
T1 construct: expressed in transfected cells; host or cells: HeLa T-Rex ACER1-TET-ON, tetracycline-induced; microsomes
T1 sequence (Q8TDN7 1-264): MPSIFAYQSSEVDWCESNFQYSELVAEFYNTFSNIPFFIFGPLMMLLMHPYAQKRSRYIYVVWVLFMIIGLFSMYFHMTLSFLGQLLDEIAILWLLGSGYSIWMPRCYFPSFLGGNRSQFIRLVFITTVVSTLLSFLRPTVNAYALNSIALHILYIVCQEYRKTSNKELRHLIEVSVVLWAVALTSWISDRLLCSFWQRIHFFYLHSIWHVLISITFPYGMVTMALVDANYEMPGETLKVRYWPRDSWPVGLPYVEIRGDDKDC
Protocol: Cell lysates obtained from HeLa T-Rex ACER1-TET-ON, HeLa T-Rex ACER2-TET-ON and MEF5 overexpressing ACER3 cells were transferred to ultracentrifuge tubes and were spun at 100000 g for 1 h at 4°C. Pellets were resuspended in a 0.25 M saccharose solution and protein concentration was determined as specified below.
Cells were seeded at 5 × 10^5 cells/mL into 6 well plates (1 mL/well) and were allowed to adhere for 24 h. Medium was replaced with fresh medium containing RBM5-177, RBM5-019 or RBM2-37 (5 µM final concentration). After 30 min, medium was removed; cells were washed with 400 µL PBS and harvested with 400 µL Trypsin-EDTA and 600 µL of medium. NC recombinant enzyme, lysates from A375-AC overexpressing cells, MEF5 or microsomes from HeLa T-Rex ACER1-TET-ON and HeLa T-Rex […] activity buffer. Cell pellets were resuspended with 100 µL of H2O and mixed with 750 µL of methanol: chloroform, 2:1. Samples were heated at 48°C overnight and next day, 75 µL of 1 M KOH in methanol were added, followed by 2 h incubation at 37°C. Afterwards, the saponification was neutralised with 75 µL of 1 M acetic acid and solvent was removed using a Speed Vac Savant SPD131 DDA (Thermo Scientific). […]

acid ceramidase (AC) = target: T2, acid ceramidase (AC) (Homo sapiens, UniProt Q13510); experiment: AC activity in intact cells by UPLC-HRMS quantification of RBM5-019 and reacylated products; assay type: cell-based; parameters: expressed in transfected cells; host or cells: A375/+Dox (overexpressing AC); settings: A375/+Dox
T2 sequence (Q13510 143-395 limits assumed): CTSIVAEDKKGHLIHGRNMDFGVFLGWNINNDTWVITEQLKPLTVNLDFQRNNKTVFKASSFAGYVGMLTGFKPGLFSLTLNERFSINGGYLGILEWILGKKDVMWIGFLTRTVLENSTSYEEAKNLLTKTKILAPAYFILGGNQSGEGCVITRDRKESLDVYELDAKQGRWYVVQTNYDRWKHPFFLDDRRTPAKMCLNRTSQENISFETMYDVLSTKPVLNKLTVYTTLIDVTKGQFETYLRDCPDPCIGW
T2 sequence (Q13510 22-142 limits assumed): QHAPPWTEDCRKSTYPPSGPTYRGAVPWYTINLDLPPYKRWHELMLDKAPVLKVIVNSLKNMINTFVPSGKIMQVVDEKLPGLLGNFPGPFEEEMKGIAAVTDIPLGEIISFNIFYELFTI
Protocol: Cells were seeded at 5 × 10^5 cells/mL into 6 well plates (1 mL/well) and were allowed to adhere for 24 h. Medium was replaced with fresh medium containing RBM5-177, RBM5-019 or RBM2-37 (5 μM final concentration). After 30 min, medium was removed; cells were washed with 400 μL PBS and harvested with 400 μL Trypsin-EDTA and 600 μL of medium. NC recombinant enzyme, lysates from A375-AC overexpressing cells, MEF5 or microsomes from HeLa T-Rex ACER1-TET-ON and HeLa T-Rex ACER2-TET-ON cells stably overexpress ACER1 orACER2 respectively were incubated with RBM5-177 or RBM5-019 (10 μM final concentration) for 3 h in the corresponding ceramidase activity buffer. Cell pellets were resuspended with 100 μL of H2O and mixed with 750 μL of methanol: chloroform, 2:1. Samples were heated at 48°C overnight and next day, 75 μL of 1 M KOH in methanol were added, followed by 2 h incubation at 37°C. Afterwards, the saponification was neutralised with 75 μL of 1 M acetic acid and solvent was removed using a […] (Thermo Scientific). Sphingolipid extracts, fortified with internal standards (N-dodecanoylsphingosine, N-dodecanoylglucosylsphingosine, N-dodecanoylsphingosylphosphorylcoline and C17-sphinganine 0.2 nmol each) were solubilised in 150 μL of methanol. Samples were then centrifuged at 9,300 g for 3 min and 130 μL of the supernatant were injected to a Waters Aquity UPLC system connected to a Waters LCT Premier Orthogonal Accelerated Time of Flight Mass Spectrometer (Waters,Milford, MA, USA) operated in positive electrospray ionisation mode. Full scan spectra from 50 to 1500 Da were acquired and individual spectra were summed to produce data points each 0.2 s. Mass accuracy and reproducibility were maintained by using an independent reference spray by the LockSpray interference. The analytical column was a 100 mm x2.1 mm i.d., 1.7 μm C8 Acquity UPLC BEH (Waters). The two mobile phases were phase A: methanol/water/formic acid (74/25/1 v/v/v); phase B: methanol/formic acid (99/1 v/v), both also contained 5 mM ammonium formate. […]

| Compound | RBM5-19 formation (hydrolysis as substrate) [1] | effect on formation of RBM5-19 and transacylated products (acid ceramidase (AC); SOCLAC 5 µM 1 h, RBM5-177 5 µM 4 h (Fig. 4B)) | effect on levels of RBM5-19 and reacylated products (acid ceramidase (AC); SOCLAC 5 µM 1 h pre treatment, RBM5-177 5 µM 4 h (Fig. 6B)) |
| --- | --- | --- | --- |
| CCCCCCCC(=O)N[C@@H](C)[C@H](O)CCCCCCCCCCCCN=[N+]=[N-] [RBM5-177, N-((2S,3R)-15-azido-3-hydroxypentadecan-2-yl)octanamide] | transformed into the free amine only by AC | – | – |
| CCCCCCCCCCCCC/C=C/[C@@H](O)[C@H](CO)NC(=O)CCl [SOCLAC] | – | precluded the formation of both RBM5-19 and transacylated products | dropped dramatically |
